US12116371B2, “Substituted pyridines as irreversible inhibitors of menin-MLL interaction” (BIOMEA FUSION, INC., priority 2018, dated 2024)
Like-named read-outs stand apart in the source and are kept apart here.

Assays:
Format in all cases: cell-based
[1] = test system: NCI-H23 cells; assay: Proliferation assay, cells in adhesion; settings: for IC50: Homo sapiens
[2] = test system: KG-1 cells; assay: Long term proliferation assay, Cell Titer-Glo read-out; settings: for IC50: Homo sapiens
Protocol: (§1) Compounds of invention are tested in the 5 suspension lines by 14-day long-term proliferation assay.
(§2) The compound is tested in 10-pt dose titration (client will determine the starting concentration and the dilution scheme) and the final DMSO concentration is kept at 0.2%.
(§3) On Day 0, in a flat bottom 96-well plate, add 100 μL of cells per well at the densities optimized. Prepare compounds in DMSO at 500× final concentration. Dilute the compounds with DMSO at the dilution. Dilute the compounds in media at 3× final concentration. Add 50 μL of compound or DMSO at 3× final concentration to each well. Final volume in each well is 150 μL, and final concentration of DMSO is 0.2%. Also include 3 untreated control wells, by adding 50 μL of media alone. Incubate plates for 96 hours.
(§4) To do this take the total viable cell count calculated using step: • 1. Take the average of the replicates for each dose in order to be used in splitting the cells. • 2. Use a 96 well V-bottom plate to spin down the cells to remove old media and compound to split the cells. • 3. Based on the split ratio place the proper amount of media and cells into the V-bottom plate, and spin the plate at 1100 rpm for 5 minutes. • 4. Following the spin remove the media, careful not to disturb the cell pellet. Re-suspend pellet in 100 μL fresh media, and add to a new 96-well flat bottom plate. • 5. Add fresh compound, in the same manner as Step 3). • 6. Incubate plates for 72 hours. Repeat steps 5)-10) on Day 7. • 7. Incubate plates for 96 hours. Repeat Step 5)-10) on Day 11. • 8. Incubate 72 hours and repeat step 5) to take a final count. • 9. Data Analysis
(§5) To calculate growth for days 4, 7, 11, and 14: • 1. Calculate the split factor for day 4 to 7, day 7 to 11, and day 11-14. The split factor is the viable cells/mL on Day X (either 4, 7 or 11) divided by the density the cells are being split back to. • 2. For growth of cells from day 4 to 7, multiply the day 7 viable cells/mL density by the split factor from day 4. • 3. For growth of cells from day 7 to 11, multiply the day 11 viable cells/mL density by the days 4, and 7 split factors. • 4. For growth of cells from Day 11 to 14, multiply the Day 14 viable cells/mL density by the days 4, 7, and 11 split factors. • 5. Plot growth on semi-log chart (viable cells/mL on Y axis, in log, and days on X axis). • 6. The growth inhibition was calculated with the formula ((untreated cell numbers-treated cell numbers)/untreated cell)). • 7. Calculate the IC50 for each compound in each line using XLFit (Sigmoidal Dose-Response Model, y=(Bottom+((Top-Bottom)/(1+((IC50/×)^Hill))))).

[3] = test system: OCI-AML-3 cells; assay: as above; settings: for IC50: Homo sapiens; for % max: OCI-AML3
Protocol: as §1, §2, §3, §4, §5

[4] = test system: SK-LU-1/AMG510 cells; assay: Proliferation assay, cells in adhesion; settings: for IC50: Homo sapiens
[5] = test system: MIAPaCa-2 cells; assay: Proliferation assay, cells in adhesion; settings: for IC50: Homo sapiens
[6] = test system: KG-1 cells; assay: Long term proliferation assay, InCell read-out; settings: for IC50: Homo sapiens
Protocol: as §1, §2, §3, §4, §5

[7] = test system: OCI-AML-3 cells; assay: Long term proliferation assay, InCell read-out; settings: for IC50: Homo sapiens
Protocol: as §1, §2, §3, §4, §5

[8] = test system: SK-LU-1 cells; assay: Proliferation assay, cells in adhesion; settings: for IC50: Homo sapiens

IC50 ([1]; NCI-H23, NCI-H23, T4, read-out: IC50): 350 nM
IC50 ([1]; NCI-H23, NCI-H23, T4, read-out: pIC50 (converted)): 355 nM
IC50 ([1]; NCI-H23, NCI-H23, T7, read-out: IC50): 200 nM
IC50 ([1]; NCI-H23, NCI-H23, T7, read-out: pIC50 (converted)): 263 nM
IC50 ([1]; NCI-H23, NCI-H23, T11, read-out: IC50): 190 nM
IC50 ([1]; NCI-H23, NCI-H23, T11, read-out: pIC50 (converted)): 191 nM
IC50 ([3]; OCI-AML-3, 96 h, OCI-AML-3, Day 4, Cell Titer-Glo, read-out: Day 4 IC50): 190 nM
IC50 ([3]; OCI-AML-3, 168 h, OCI-AML-3, Day 7, Cell Titer-Glo, read-out: Day 7 IC50): 140 nM
IC50 ([3]; OCI-AML-3, 264 h, OCI-AML-3, Day 11, Cell Titer-Glo, read-out: Day 11 IC50): 100 nM
IC50 ([3]; OCI-AML-3, 336 h, OCI-AML-3, Day 14, Cell Titer-Glo, read-out: Day 14 IC50): 120 nM
IC50 ([3]; OCI-AML-3, OCI-AML3, T4, CellTiter-Glo, read-out: IC50): 190 nM
IC50 ([3]; OCI-AML-3, OCI-AML3, T4, CellTiter-Glo, read-out: pIC50 (converted)): 191 nM
IC50 ([3]; OCI-AML-3, OCI-AML3, T11, CellTiter-Glo, read-out: IC50): 100 nM
IC50 ([3]; OCI-AML-3, OCI-AML3, T11, CellTiter-Glo, read-out: pIC50 (converted)): 100 nM
IC50 ([4]; SK-LU-1, SK-LU-1/AMG510, T4, read-out: IC50): 720 nM
IC50 ([4]; SK-LU-1, SK-LU-1/AMG510, T7, read-out: IC50): 450 nM
IC50 ([4]; SK-LU-1, SK-LU-1/AMG510, T7, read-out: pIC50 (converted)): 447 nM
IC50 ([4]; SK-LU-1/AMG510, T11, read-out: IC50): 390 nM
IC50 ([4]; SK-LU-1/AMG510, T11, read-out: pIC50 (converted)): 389 nM
IC50 ([5]; MIA PaCa-2, MIAPaCa-2, T4, read-out: IC50): 270 nM
IC50 ([5]; MIA PaCa-2, MIAPaCa-2, T4, read-out: pIC50 (converted)): 269 nM
IC50 ([5]; MIA PaCa-2, MIAPaCa-2, T7, read-out: IC50): 230 nM
IC50 ([5]; MIA PaCa-2, MIAPaCa-2, T7, read-out: pIC50 (converted)): 229 nM
IC50 ([5]; MIA PaCa-2, MIAPaCa-2, T11, read-out: IC50): 220 nM
IC50 ([5]; MIA PaCa-2, MIAPaCa-2, T11, read-out: pIC50 (converted)): 219 nM
IC50 ([7]; OCI-AML-3, 96 h, OCI-AML-3, Day 4, read-out: Day 4 IC50): 110 nM
IC50 ([7]; OCI-AML-3, 264 h, OCI-AML-3, Day 11, read-out: Day 11 IC50): 120 nM
IC50 ([7]; OCI-AML-3, OCI-AML3, T4, read-out: IC50): 110 nM
IC50 ([7]; OCI-AML-3, OCI-AML3, T4, read-out: pIC50 (converted)): 110 nM
IC50 ([7]; OCI-AML-3, OCI-AML3, T11, read-out: IC50): 120 nM
IC50 ([7]; OCI-AML-3, OCI-AML3, T11, read-out: pIC50 (converted)): 123 nM
IC50 ([8]; SK-LU-1, SK-LU-1, T4, read-out: IC50): 680 nM
IC50 ([8]; SK-LU-1, SK-LU-1, T7, read-out: IC50): 590 nM
IC50 ([8]; SK-LU-1, SK-LU-1, T7, read-out: pIC50 (converted)): 589 nM
IC50 ([8]; SK-LU-1, SK-LU-1, T11, read-out: IC50): 370 nM
IC50 ([8]; SK-LU-1, SK-LU-1, T11, read-out: pIC50 (converted)): 372 nM
Compound: C=CC(=O)NC1CCCN(Cc2ccnc(C(=O)Nc3ccc(-c4cc5c(N6CCOCC6)ncnc5[nH]4)cc3)c2)C1 (stereo not shown) [Compound 10]
% max ([1]; NCI-H23, T4): 92%
% max ([1]; NCI-H23, T7): 96%
% max ([1]; NCI-H23, T11): 98%
IC50 ([2]; 96 h, Day 4, Cell Titer-Glo, read-out: Day 4 IC50): 470 nM
IC50 ([2]; 168 h, Day 7, Cell Titer-Glo, read-out: Day 7 IC50): 330 nM
IC50 ([2]; 264 h, Day 11, Cell Titer-Glo, read-out: Day 11 IC50): 270 nM
IC50 ([2]; 336 h, Day 14, Cell Titer-Glo, read-out: Day 14 IC50): 240 nM
IC50 ([2]; T4, CellTiter-Glo, read-out: IC50): 470 nM
IC50 ([2]; T4, CellTiter-Glo, read-out: pIC50 (converted)): 468 nM
IC50 ([2]; T11, CellTiter-Glo, read-out: IC50): 270 nM
IC50 ([2]; T11, CellTiter-Glo, read-out: pIC50 (converted)): 269 nM
% max ([2]; T4, CellTiter-Glo): 99%
% max ([2]; T11, CellTiter-Glo): 99%
% max ([3]; T4, CellTiter-Glo): 99%
% max ([3]; T11, CellTiter-Glo): 99%
% max ([4]; SK-LU-1/AMG510, T4): 83%
% max ([4]; SK-LU-1/AMG510, T7): 95%
% max ([4]; SK-LU-1/AMG510, T11): 98%
% max ([5]; MIAPaCa-2, T4): 96%
% max ([5]; MIAPaCa-2, T7): 98%
% max ([5]; MIAPaCa-2, T11): 99%
IC50 ([6]; KG-1, 96 h, KG-1, Day 4, read-out: Day 4 IC50): 520 nM
IC50 ([6]; KG-1, 264 h, KG-1, Day 11, read-out: Day 11 IC50): 300 nM
IC50 ([6]; KG-1, KG-1, T4, read-out: IC50): 520 nM
IC50 ([6]; KG-1, KG-1, T4, read-out: pIC50 (converted)): 525 nM
IC50 ([6]; KG-1, KG-1, T11, read-out: IC50): 300 nM
IC50 ([6]; KG-1, KG-1, T11, read-out: pIC50 (converted)): 302 nM
% max ([6]; KG-1, T4): 100%
% max ([6]; KG-1, T11): 100%
% max ([7]; OCI-AML3, T4): 100%
% max ([7]; OCI-AML3, T11): 100%
% max ([8]; SK-LU-1, T4): 82%
% max ([8]; SK-LU-1, T7): 95%
% max ([8]; SK-LU-1, T11): 96%
